Calls of active or inactive are those of the source.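 The calls were made as follows: active = inhibition of at least 30% at one or more tested concentrations; inactive = inhibition below 30% at every dose.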
Test system: BSR cells, Bluetongue virus CPE, ATP luminescence, 72 h
Test: antiviral protection against BTV-induced cell death – arbovirus, BSR cells, confirmation (AID 1250)
Conditions: not given

| Structure (SMILES) | IC50 [µM] |
| --- | --- |
| O=C(O)CSc1cc(C(=O)c2ccccc2O)cn2c(=O)c3c(-c4ccccc4)csc3nc12 | 14.1 |
| C/C(=N\NC(=O)c1ccccc1C)c1ccc(NC(=O)c2cccs2)cc1 | 0.524 |
| COc1cccc(C(=O)Nc2nc(-c3ccc4c(c3)OCO4)cs2)c1 | 9.98 |
| O=C(Nc1nc(-c2ccc(Cl)cc2Cl)cs1)c1ccc(OCC2CCCO2)cc1 (stereo not drawn) | 5.08 |
| CCOc1ccc(N=Nc2c(=O)[nH]n3c(=O)c4c([nH]c23)CCCC4)cc1 | 16.6 |
| COc1ccc(CN(C(=O)c2cc3ccccc3oc2=O)C2CCCCC2)cc1OC | 16.6 |
| O=c1[nH]n2c(=O)c3c([nH]c2c1N=Nc1cccc(C(F)(F)F)c1)CCCC3 | 19.5 |
| CC(C)(C)n1nnnc1C(c1ccc(C(F)(F)F)cc1)N(Cc1ccc(F)cc1)Cc1ccco1 (stereo not drawn) | 20.5 |
| COc1cc(C(=O)Nc2nc(-c3ccc(C)cc3)cs2)ccc1OCC(=O)N1CCOCC1 | 4 |
| COc1ccc(/C=C/C(=O)Nc2ccccc2C(=O)O)cc1OC | 4.78 |
| Cc1ccc(N2C(=O)/C(=C\c3ccc(C(C)C)cc3)N=C2SC2CCOC2=O)cc1 (stereo not drawn) | 12.1 |
| CC(NC(=O)c1cccs1)c1nnc(SCc2ccc(Cl)cc2Cl)n1C (stereo not drawn) | 9.37 |
| O=C(/C=C/c1cccs1)Nc1scc(-c2ccccc2)c1C(=O)O | 6.24 |
| CC(C)(C)c1c(Cl)c(O)c(-c2ccccc2)c(=O)n1-c1ccccc1 | 15.5 |
| O=C(O)c1ccc(N2C(=O)/C(=C/c3ccc(-c4ccc([N+](=O)[O-])cc4)o3)C=C2c2ccccc2)cc1 | 5.33 |
| COc1ccc(-c2csc(NC(=O)c3ccco3)n2)cc1 | 19.3 |
| O=C(CSc1nc(-c2ccccc2)nc2c1Cc1ccccc1O2)Nc1ccc(C(=O)O)cc1 | 17.5 |
| Cc1csc(NC(=O)c2c(O)c3c(n(CC(C)C)c2=O)CCCC3)n1 | 4.9 |
| Cc1ccc(-c2csc(NC(=O)/C=C/c3ccco3)c2C(=O)O)cc1 | 8.57 |
| O=C(O)c1cccc(N/N=C/C2=C(Cl)c3cc(Cl)ccc3SC2)c1 | 13.2 |
| CCCCCCc1cc2cc(C(=O)Nc3ccccc3OC)c(=O)oc2cc1O | 9.14 |
| CCc1nn2c(N)c(/C=C3\C=Nc4ccccc43)c(=O)nc2s1 | 18.3 |

| Structure (SMILES) | IC50 [µM] |
| --- | --- |
| Cc1nn(-c2ccccc2)c(Cl)c1/C=N/Nc1ccc(Cl)c(C(=O)O)c1 | 14.5 |
| CCOC(=O)c1ccc(N2C(=O)C3C(/C=C/c4ccccc4)OC4(C(=O)c5ccccc5C4=O)C3C2=O)cc1 (stereo not drawn) | 19.6 |
| CCNc1nc(SCCOc2ccc(Cl)cc2Cl)nc(N(C)C)n1 | 5.92 |
| CCOc1ccc(C(=O)Nc2cc(NC(=O)c3ccc(OCC)c(Cl)c3)cc(C(=O)O)c2)cc1Cl | 20.9 |
| CCOc1ccc(-c2cc3nc(C4CCN(C(=O)OC(C)(C)C)CC4)c(C(=O)O)cn3n2)cc1 | 19.8 |
| COCCCn1c(N)c(-c2nc3ccccc3n2C)c2nc3ccccc3nc21 | 7.62 |
| CC(C)(C)c1ccc(C(=O)Nc2sc3c(c2C(=O)O)CCC3)cc1 | 0.165 |
| CC(=O)OC[C@H]1O[C@@H](n2ncc(=O)[nH]c2=O)[C@H](OC(C)=O)[C@@H]1OC(C)=O | 9.79 |
| C=CCn1c(CNC(=O)c2cccs2)nnc1SCc1ccc(Cl)cc1Cl | 11 |
| Cc1ccc(-c2csc(NC(=O)C3=NN(c4ccccc4)C(=O)CC3)n2)cc1 | 11.1 |
| O=C(/C=C/c1ccccc1)Nc1scc(-c2ccccc2)c1C(=O)O | 3.06 |
| COc1ccc(Cn2c(C)c(C)c(C#N)c2NC(=O)Nc2cccc(C)c2)cc1 | 7.63 |
| COC(=O)c1ccccc1NC(=O)CN1CCC(n2nnc3cc(F)ccc32)CC1 | 0.178 |
| C(=N\Nc1nc(-c2ccccc2)cs1)/c1cccs1 | 15.5 |
| Cc1cccc(C)c1-n1cccc1/C=C1/C(=N)N2C(=NC1=O)SN=C2S(C)(=O)=O | 16.4 |
| Cc1nc(CS(=O)c2ccc(Cl)cc2)cc(NCc2ccc(Cl)cc2Cl)n1 (stereo not drawn) | 9.42 |
| O=C(Nc1nc(-c2ccccc2)cs1)c1cccs1 | 10.1 |
| COc1ccc(Cl)cc1NC(=O)c1cc(-c2ccccc2O)n[nH]1 | 14.4 |
| COc1ccc(N=C2S/C(=C\c3ccc(OCC(=O)O)cc3)C(=O)N2CCc2c[nH]c3ccccc23)cc1 | 15.6 |
| Cn1c(-c2c(N)n(-c3ccccc3)c3nc4ccccc4nc23)nc2ccccc21 | 2.42 |
| O=c1[nH]n2c(=O)c3c([nH]c2c1N=Nc1cccc(Cl)c1)CCCC3 | 18.5 |

Test system: not listed separately
Test: as above
Conditions: BSR cells, Bluetongue virus CPE, ATP luminescence, 72 h; at 5 µM (top of the series)

| Structure (SMILES) | CPE inhibition |
| --- | --- |
| O=C(Nc1cccc(Cl)c1)Nc1ccnc(-c2cccnc2)n1 | 23.9% (inactive) |

Same assay, conditions: BSR cells, Bluetongue virus CPE, ATP luminescence, 72 h; at 20 µM (top of the series)

| Structure (SMILES) | CPE inhibition |
| --- | --- |
| CN(C(=O)c1coc(=O)c2ccccc12)c1ccc(Br)cc1 | 18.4% (inactive) |
| CCCC(=O)Nc1cccc(NC(=O)c2ccc([N+](=O)[O-])cc2Cl)c1 | 1.21% (inactive) |
| CCCCCCCCCCCC(=O)NC(C(=O)O)C(O)c1ccccc1 (stereo not drawn) | 11.5% (inactive) |
| Cc1cccc(-n2c(=O)c3c4c(sc3n3c(=S)[nH]nc23)CCC4)c1 | 7.97% (inactive) |
| O=C1NC(=O)/C(=C\c2ccc(Oc3ccc([N+](=O)[O-])cn3)cc2)S1 | 12.8% (inactive) |
| O=C(O)c1csc(N/N=C/c2ccc(Br)cc2)n1 | 8.09% (inactive) |
| CC(C)CC1=NN2C(=N)/C(=C\c3coc4ccccc4c3=O)C(=O)N=C2S1 | 13.5% (inactive) |
| COCCSc1nnc(NC(=O)C2CCCCC2)s1 | 6.07% (inactive) |
| O=C(CSc1ncn(-c2ccccc2)n1)Nc1nc2ccccc2s1 | 10.5% (inactive) |
| CSc1nsc2nc(=O)c(/C=C3\C=Nc4ccccc43)c(N)n12 | 20.5% (inactive) |
| Fc1ccccc1COc1ccc2ccccc2c1CNc1nn[nH]n1 | 11.5% (inactive) |
| CC(=O)Nc1ccc(NC(=O)COc2ccccc2C(=O)Nc2cccc(Cl)c2Cl)cc1 | 15% (inactive) |
| COc1cccc(C2=CC(c3ccc(N(C)C)cc3)n3ncnc3N2)c1 (stereo not drawn) | 8.59% (inactive) |
| Cc1ccc(CSCc2nc3ccccc3[nH]2)cc1 | 12.9% (inactive) |
| CC(C)CSC1=NSC2=NC(=O)/C(=C\c3coc4ccccc4c3=O)C(=N)N12 | 14% (inactive) |
| COc1cc2c(C(=O)O)c(C)n(CC(C)C)c2c2ccccc12 | 28.1% (inactive) |
| COc1ccc(-c2nc(C3CCCCC3)no2)cc1OC | 8.02% (inactive) |
| N#Cc1c(NC(=O)C2CC(Cl)=CCC2C(=O)O)sc2c1CCCCC2 (stereo not drawn) | 17.1% (inactive) |
| O=C(Nc1nc(-c2ccccc2)ns1)c1cccs1 | 15.2% (inactive) |
| COc1ccc2c(C)cc(Sc3nnnn3-c3ccccc3)nc2c1 | 20.9% (inactive) |
| O=c1oc(-c2ccccc2)nc2sc3c(c12)CCCC3 | 24.9% (inactive) |
| CCCn1c(N)c(C(=O)CSc2nc3ccccc3c(=O)n2-c2ccc(OC)cc2)c(=O)[nH]c1=O | 1.41% (inactive) |
| COc1ccc2cc(-c3cc(C(=O)O)c4ccccc4n3)ccc2c1 | 12.7% (inactive) |
| c1ccc(-c2csc3ncnc(NCCCN4CCOCC4)c23)cc1 | 4.19% (inactive) |
| CCc1ccc(S(=O)(=O)c2ccc(-n3nc(C)cc3N)cc2)cc1 | 6.14% (inactive) |
| O=Cc1ccc(OCc2ccccn2)cc1 | 2.77% (inactive) |
| COc1ccc(-c2noc(-c3cc(C)cc(C)c3)n2)cc1OC | 10% (inactive) |

| Structure (SMILES) | CPE inhibition |
| --- | --- |
| CCc1nn2cc(C(=O)c3ccccc3O)cnc2c1-c1ccc(F)cc1 | 14.2% (inactive) |
| Cc1c(Cl)cccc1NC(=O)c1cc(-c2ccccc2O)n[nH]1 | 17.9% (inactive) |
| O=C1CN(C(=O)/C=C/c2ccc(Cl)cc2)c2ccccc2N1 | 7.62% (inactive) |
| O=C(NC1CCN(Cc2ccccc2)CC1)c1cccc(S(=O)(=O)Nc2cc(C(F)(F)F)ccc2Cl)c1 | 21.7% (inactive) |
| Cc1cc(C)c(NC(=S)NC(=O)c2ccc(-c3ccccc3)cc2)c(C)c1 | 14.9% (inactive) |
| O=C(O)C(Cc1ccccc1)N=Cc1c(O)c2ccccc2oc1=O (stereo not drawn) | 7.31% (inactive) |
| N=C1/C(=C/c2ccc(-c3cccc(C(=O)O)c3)o2)C(=O)N=C2SC=C(c3ccccc3)N12 | 16.8% (inactive) |
| O=C(O)c1cc(N/N=C/c2ccc(OCc3ccccc3)cc2)ccc1Cl | 19.7% (inactive) |
| COc1ccc(F)cc1C(=O)C1CCCN(C(=O)CSc2ccccn2)C1 (stereo not drawn) | 17.6% (inactive) |
| O=C(O)c1cccc(NC(=S)NC(=O)c2ccc(-c3ccc(Cl)cc3)o2)c1 | 29.9% (inactive) |
| Brc1ccccc1-c1nnc(SCc2nc3ccccc3s2)o1 | 0.37% (inactive) |
| O=C(c1ccco1)N1CCN(c2nc(-c3ccc(F)cc3)cs2)CC1 | 17.1% (inactive) |
| COC(=O)[C@H](Cc1ccccc1)NC(=O)O[C@@H]1C(=O)c2cc(OC)ccc2O[C@H]1c1ccc(OC)c(Br)c1 | 13.7% (inactive) |
| COc1ccccc1-n1c(C)cc(/C=C2/C(=N)N3C(=NC2=O)SN=C3S(C)(=O)=O)c1C | 18.1% (inactive) |
| O=C(CCl)N=c1sccn1Cc1cccc2ccccc12 | 7.67% (inactive) |
| O=C(CCn1c(=O)sc2ccccc21)NCCCn1ccnc1 | 4.88% (inactive) |
| CC1CCN(C2=NC(=O)/C(=C/c3cn[nH]c3-c3ccccc3)S2)CC1 | -2.7% (inactive) |
| CC1CCCN(C(=O)c2cccc(S(=O)(=O)Nc3cc(C(F)(F)F)ccc3Cl)c2)C1 (stereo not drawn) | 28.2% (inactive) |
| CN1CCN(C(=S)NC(=O)c2ccc(Cl)cc2)CC1 | 29.2% (inactive) |
| Oc1ccccc1CN1CCCN(Cc2ccccc2O)C1 | 2.17% (inactive) |
| O=C(Nc1nc(-c2ccc3c(c2)OCO3)cs1)C1COc2ccccc2O1 (stereo not drawn) | 22.7% (inactive) |
| CC1=NN(c2nc(-c3ccc(Cl)cc3)cs2)C(=O)C1 | 8.37% (inactive) |
| COc1cc(/C=C/C(=O)c2c(O)n(CCc3ccccc3)c(=O)[nH]c2=O)ccc1O | 13% (inactive) |
| O=C(NNC(=S)NC1CCCCC1)c1ccc(Cl)s1 | 28.3% (inactive) |
| C=CCOc1ccc(Br)cc1/C=C1/SC(=Nc2ccc(C(=O)O)cc2)NC1=O | 10.2% (inactive) |
| CCOc1ccc(-n2c(=O)[nH]c3sc4c(c3c2=O)CCCC4)cc1 | 16.6% (inactive) |
| COc1ccc(C(=O)NN/C(C)=C/C(=O)C(F)(F)C(F)(F)C(F)(F)F)cc1 | -14.6% (inactive) |
